The assay concerns the target T1, monoglyceride lipase (MGLL) (Homo sapiens, UniProt Q99685).
T1 construct: enzyme source only in Supplementary section D
T1 sequence (Q99685 1-303): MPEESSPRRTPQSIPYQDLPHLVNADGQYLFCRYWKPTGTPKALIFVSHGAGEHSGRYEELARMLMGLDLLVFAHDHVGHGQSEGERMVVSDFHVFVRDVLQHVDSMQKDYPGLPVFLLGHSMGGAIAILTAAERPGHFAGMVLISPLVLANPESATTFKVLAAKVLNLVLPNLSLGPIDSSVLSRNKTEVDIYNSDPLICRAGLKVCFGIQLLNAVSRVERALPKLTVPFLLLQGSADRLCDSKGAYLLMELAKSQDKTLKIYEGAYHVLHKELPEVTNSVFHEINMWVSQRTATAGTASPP
The assay can be described thus: natural substrate assay, residual MGLL activity. The following applies: enzyme preparation and conditions only in Supplementary section D.

Usually IC50 stands for the midpoint of a concentration-inhibition curve. Read a low IC50 as higher potency.

Regarding `O=C(OC(C(F)(F)F)C(F)(F)F)N1CCN(C2CCCCC2)CC1` [compound 1, Compound 1], half-maximal inhibition (IC50) was put at 1 µM.

With `O=C(c1nccs1)N1CCN(C(c2ccccc2)c2ccccc2)CC1` [compound 3], the IC50 was around 100 µM.

Take `O=C(N1CCCC(c2ccc(F)cc2)C1)n1nnc2ccccc21` (stereo not drawn) [compound 2]: the IC50 was around 100 µM.

Values taken from article PMC11954305, “Generate what you can make: achieving in-house synthesizability with readily available resources in de novo drug design” (Journal of Cheminformatics, 2025).
